Measured values taken from paper PMC9032693, “Biological Evaluation of New Thienopyridinium and Thienopyrimidinium Derivatives as Human Choline Kinase Inhibitors” (Pharmaceutics, 2022).

Key:
[1] = test system: MDA-MB-231; assay: Antiproliferative activity, resazurin assay, 72 h; assay type: cell-based, human
Protocol: (§1) Human cervix carcinoma (HeLa), Non-small lung adenocarcinoma (A549), Colon adenocarcinoma (HT29), and human triple negative breast cancer (MDA-MB-231) were cultured in Dulbecco’s modified Eagle’s media (DMEM). B-acute lymphoblastic leukemia (RS4;11 and SEM), T-acute lymphoblastic leukemia (Jurkat), and human promyelocytic cells (HL-60), were cultured in RPMI-1640 medium. Both media were purchased from Gibco, Life Technologies (Milan, Italy) and supplemented with 10% Fetal Bovine Serum (FBS, Invitrogen, Milan, Italy,). Every six months, each cell line was checked for the presence of mycoplasma by RT-PCR.
(§2) Stock solutions (10 mM) of the different compounds were made in DMSO. Cancer cells were seeded in tissue-treated, flat bottom, 384-well plates (Corning) according to their optimal density, (A549 1000 cells/wells; MDA-MB-231, HeLa and HT-29 2000 cells/well and finally Jurkat, HL-60 SEM and RS4;11 20.000 cells/well) in 27 µL of complete medium per well.
(§3) The day after cell seeding and immediately before cell treatment, 10 mM stock solutions of the compounds were pre-diluted to a […] concentration in 250 µL of Hank’s in a 96-well plate (Corning). Subsequent 1:5 dilutions were carried out using a microlab STAR 96-CORE liquid handling system (Hamilton), a robotized liquid handling tool that was employed for all steps, from cell seeding to drug dilution and cell treatment to ensure high reproducibility while reducing time for large screening execution. This pre-dilution step was necessary to avoid DMSO-related cytotoxicity and compound precipitation in the cell culture medium. In every case, DMSO concentration never exceeded 0.1%.
(§4) Positive (Bortezomib 1 µM) and negative (0.1% DMSO) controls were included in all the screened plates to allow for monitoring the Z’ factor throughout the entire screening. Cells were treated with 3 µL of the previously made dilutions; thus, generating a 6-point 5-fold dose–response curve starting from 10 µM. Within a plate, each drug concentration was tested in duplicate in two independent experiments for each compound.
(§5) Treated cells were then placed inside the CO2 incubator for 72 h at 37 °C. Cell viability was assessed by resazurin assay, in which 3 µL of resazurin per well were added using the previously described automated platform. Plates were placed in the incubator at 37 °C for 2 h, and then the fluorescence of each plate was read using a Spark 10 M multimode microplate reader (Tecan Group Ltd., Mannedorf, Switzerland) with 535 nm excitation wavelength and 600 nm emission wavelength.

[2] = test system: HeLa; assay: Antiproliferative activity, resazurin assay, 72 h; assay type: cell-based, human
Protocol: as §1, §2, §3, §4, §5

[3] = test system: HL-60; assay: Antiproliferative activity, resazurin assay, 72 h; assay type: cell-based, human
Protocol: as §1, §2, §3, §4, §5

[4] = test system: RS 4;11; assay: Antiproliferative activity, resazurin assay, 72 h; assay type: cell-based, human
Protocol: as §1, §2, §3, §4, §5

[5] = test system: HT29; assay: Antiproliferative activity, resazurin assay, 72 h; assay type: cell-based, human
Protocol: as §1, §2, §3, §4, §5

[6] = test system: Jurkat; assay: Antiproliferative activity, resazurin assay, 72 h; assay type: cell-based, human
Protocol: as §1, §2, §3, §4, §5

[7] = test system: A549; assay: Antiproliferative activity, resazurin assay, 72 h; assay type: cell-based, human
Protocol: as §1, §2, §3, §4, §5

[8] = test system: SEM cells; assay: Antiproliferative activity, resazurin assay, 72 h; assay type: cell-based, human
Protocol: as §1, §2, §3, §4, §5

[9] = Solubility as observed in the enzyme inhibition assays; assay type: physicochemical; parameters: key to solubility (footnote b): -: The compound was not soluble; conditions: for solubility (footnote b): CK inhibition assay at 10 and 30 µM; for solubility (in words): IC50 could not be determined
[10] = target: T1, CKα1 (Homo sapiens, UniProt P35790); assay: Choline kinase assay ([methyl-14C]choline into PCho, purified enzyme); assay type: biochemical; conditions: for IC50: concentration required to inhibit CKα1 enzyme by 50%; for % Inhibition at 10 µM: purified CKα1, inhibitor 10 µM; for % Inhibition at 10 µM / % Inhibition at 30 µM: end-point assay; for % Inhibition at 30 µM: purified CKα1, inhibitor 30 µM
T1 construct: an N-terminally His-tagged truncated form of CKα1 (Δ75–457) was cloned into a pET-28a vector; His tag (N); made in house; host or cells: E. coli BL21 (DE3) Star
Protocol: The protein was produced and purified as previously described. Briefly, an N-terminally His-tagged truncated form of CKα1 (Δ75–457) was cloned into a pET-28a vector and expressed at 37 °C in E. coli BL21 (DE3) Star cells using 1 mM isopropyl β-D-1-thiogalactopyranoside (IPTG). After centrifugation, the cellular pellet was resuspended in 50 mM Tris-HCl pH 7.5, 500 mM NaCl, 0.2 mM phenylmethylsulphonyl fluoride (PMSF), DNase, and 0.5 mM β-mercaptoethanol, sonicated and subjected to a two-step purification procedure to isolate the target enzyme. […] Protein elution was completed using buffer A + 400 mM imidazole. A second size-exclusion chromatography step was then carried out to achieve complete purity. To this end, we used a HiPrep 26/60 Sephacryl 100 HR column (GE Healthcare, Little Chalfont, Buckinghamshire, UK) and a 20 mM Tris/HCl pH 7.5, 150 mM NaCl running buffer.
To study the effect of the compounds on CKα, an in vitro enzymatic assay was performed using the purified enzyme as previously reported in [19, 28, 29]. Briefly, the incorporation of ^14C from [methyl-^14C]choline into PCho in either the absence (control) or presence of different inhibitors at varying concentrations was used to determine the CK activity. The reaction mixture included 20 ng of purified CKα1, 10 mM ATP, 10 mM MgCl2, 100 mM Tris-HCl pH 8.5, and increasing concentrations of compounds. The mixture was preincubated at 37 °C for 5 min. Then, [methyl-^14C]choline chloride (1 mM, 4500 dpm/nmol) was added and the reaction was left to proceed for 10 min at 37 °C. The assay was stopped by immersing the reaction tubes in boiling water. PCho was separated by Thin Layer Chromatography using methanol/0.6% NaCl/28% NH4OH in water (50:50:5, v/v/v) as solvent. The radioactivity associated into PCho was determined in a Beckman 6000-TA (Madrid, Spain) liquid scintillation counter. The 50% inhibitory concentrations (IC50 values) were determined from the % enzyme activity at different concentrations of synthetic inhibitors relative to the control by using a sigmoidal dose–response curve (ED50plus v1.0 software).

T1 sequence (P35790 75-457): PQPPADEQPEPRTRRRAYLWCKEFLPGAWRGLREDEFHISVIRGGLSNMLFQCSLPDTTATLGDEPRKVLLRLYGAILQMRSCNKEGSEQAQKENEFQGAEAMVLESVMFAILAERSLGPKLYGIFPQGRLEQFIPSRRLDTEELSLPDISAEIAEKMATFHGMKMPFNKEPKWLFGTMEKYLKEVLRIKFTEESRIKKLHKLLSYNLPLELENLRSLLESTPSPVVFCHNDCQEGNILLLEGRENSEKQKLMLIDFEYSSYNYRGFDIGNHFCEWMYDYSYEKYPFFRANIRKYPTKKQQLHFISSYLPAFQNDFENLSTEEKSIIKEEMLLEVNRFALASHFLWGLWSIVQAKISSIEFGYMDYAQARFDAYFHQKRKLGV

Row | Structure (SMILES) | GI50 [1] [nM] | GI50 [2] [nM] | GI50 [3] [nM] | GI50 [5] [nM] | GI50 [6] [nM] | GI50 [7] [nM] | solubility (footnote b) [9] | solubility (in words) [9] | IC50 [10] [nM] | % Inhibition at 10 µM [10] [%] | % Inhibition at 30 µM [10] [%] | IC50 ([10]; listed as Fa-34) [nM] | GI50 [4] [nM] | GI50 [8] [nM]
1 | [Br-].[Br-].c1cc2c(N3CCCCCC3)nc[n+](Cc3ccc(CCc4ccc(C[n+]5cnc(N6CCCCCC6)c6ccsc65)cc4)cc3)c2s1 [Fg-19] | 500 ± 20 | 780 ± 20 | 150 ± 10 | 1420 ± 100 | 4720 ± 600 | 310 ± 40 | - ^b | insolubility | – | – | – | – | 1510 ± 200 | 2590 ± 30
2 | [Br-].[Br-].c1cc2c(s1)c(N1CCCCCC1)cc[n+]2Cc1ccc(-c2ccc(C[n+]3ccc(N4CCCCCC4)c4sccc43)cc2)cc1 [Fg-10] | 1460 ± 200 | 1590 ± 100 | 440 ± 50 | 1760 ± 200 | 6330 ± 600 | 310 ± 10 | – | – | ≥ 10000 | 80.76 | 96.98 | – | 2770 ± 900 | 3510 ± 800
3 | [Br-].[Br-].c1cc2c(s1)c(N1CCCC1)nc[n+]2Cc1ccc(CCCCc2ccc(C[n+]3cnc(N4CCCC4)c4sccc43)cc2)cc1 [Ff-7] | 470 ± 40 | 870 ± 50 | 400 ± 50 | 1480 ± 40 | 8610 ± 1300 | 210 ± 30 | – | – | 8570 ± 2800 | 89.95 | 95.88 | – | 2330 ± 300 | 2930 ± 200
4 | [Br-].[Br-].c1cc2c(N3CCCCC3)nc[n+](Cc3ccc(CCCCc4ccc(C[n+]5cnc(N6CCCCC6)c6ccsc65)cc4)cc3)c2s1 [Ff-6] | 500 ± 20 | 420 ± 50 | 190 ± 10 | 930 ± 40 | 6700 ± 800 | 190 ± 30 | – | – | ≥ 10000 | 46.43 | 73.19 | – | 1500 ± 200 | 2520 ± 200
5 | [Br-].[Br-].c1cc2c(s1)c(N1CCCCC1)nc[n+]2Cc1ccc(OCCOc2ccc(C[n+]3cnc(N4CCCCC4)c4sccc43)cc2)cc1 [Fa-28] | 190 ± 10 | 590 ± 20 | 350 ± 10 | > 10000 | > 10000 | 290 ± 20 | – | – | 3250 ± 540 | 87.69 | 92.19 | – | 2320 ± 30 | 2410 ± 40
6 | [Br-].[Br-].c1cc2c(s1)c(N1CCCC1)cc[n+]2Cc1ccc(CCCCc2ccc(C[n+]3ccc(N4CCCC4)c4sccc43)cc2)cc1 [Ff-1] | 1230 ± 10 | 1900 ± 10 | 790 ± 50 | 3320 ± 30 | 4130 ± 400 | 970 ± 20 | – | – | 1540 ± 170 | 82.15 | 90.83 | – | 7900 ± 1300 | 3070 ± 300
7 | [Br-].[Br-].c1cc2c(s1)c(N1CCCCC1)nc[n+]2Cc1ccc(CCCCc2ccc(C[n+]3cnc(N4CCCCC4)c4sccc43)cc2)cc1 [Fa-33] | 410 ± 20 | 280 ± 20 | 140 ± 10 | 1070 ± 100 | 1460 ± 100 | 160 ± 10 | – | – | 1670 ± 80 | 98.90 | 97.80 | – | 760 ± 100 | 1370 ± 70
8 | [Br-].[Br-].c1cc2c(N3CCCC3)nc[n+](Cc3ccc(CCc4ccc(C[n+]5cnc(N6CCCC6)c6ccsc65)cc4)cc3)c2s1 [Fg-15] | 260 ± 20 | 1000 ± 100 | 130 ± 10 | 2010 ± 30 | > 10000 | 220 ± 30 | – | – | ≥ 5000 | 71.11 | 81.29 | – | 3710 ± 40 | > 10000

Continued by falling GI50 [1], values first:

Row | GI50 [1] [nM] | GI50 [2] [nM] | GI50 [3] [nM] | GI50 [5] [nM] | GI50 [6] [nM] | GI50 [7] [nM] | solubility (footnote b) [9] | solubility (in words) [9] | IC50 [10] [nM] | % Inhibition at 10 µM [10] [%] | % Inhibition at 30 µM [10] [%] | IC50 ([10]; listed as Fa-34) [nM] | Structure (SMILES) | GI50 [4] [nM] | GI50 [8] [nM]
9 | 1430 ± 200 | 3260 ± 400 | 2140 ± 100 | > 10000 | > 10000 | 1060 ± 100 | – | – | – | 77.41 | 82.77 | – | [Br-].[Br-].c1cc2c(s1)c(N1CCCC1)cc[n+]2Cc1ccc(OCCOc2ccc(C[n+]3ccc(N4CCCC4)c4sccc43)cc2)cc1 [Ff-2] | > 10000 | > 10000
10 | 1130 ± 200 | 1170 ± 100 | 510 ± 50 | 1560 ± 200 | 6150 ± 600 | 600 ± 60 | - ^b | insolubility | – | – | – | – | [Br-].[Br-].c1cc2c(s1)c(N1CCCCCC1)nc[n+]2Cc1ccc(CCc2ccc(C[n+]3cnc(N4CCCCCC4)c4sccc43)cc2)cc1 [Fa-23] | 2080 ± 30 | 2170 ± 20
11 | 1090 ± 100 | 1400 ± 20 | 760 ± 50 | 4500 ± 400 | > 10000 | 1170 ± 10 | – | – | ≥ 10000 | 51.54 | 74.39 | – | [Br-].[Br-].c1cc2c(N3CCCCC3)nc[n+](Cc3ccc(CCc4ccc(C[n+]5cnc(N6CCCCC6)c6ccsc65)cc4)cc3)c2s1 [Fg-31] | 7200 ± 1000 | > 10000
12 | 910 ± 80 | 930 ± 10 | 270 ± 10 | 1630 ± 100 | 6100 ± 1100 | 290 ± 30 | – | – | 700 ± 30 | 94.31 | 99.02 | 704 | [Br-].[Br-].c1cc2c(s1)c(N1CCCCCC1)nc[n+]2Cc1ccc(OCCOc2ccc(C[n+]3cnc(N4CCCCCC4)c4sccc43)cc2)cc1 [Ff-34] | 1800 ± 100 | 2500 ± 100
13 | 720 ± 30 | > 10000 | 790 ± 50 | > 10000 | > 10000 | 230 ± 30 | – | – | ≥ 10000 | 55.23 | 77.28 | – | [Br-].[Br-].c1cc2c(N3CCCC3)nc[n+](Cc3ccc(OCCOc4ccc(C[n+]5cnc(N6CCCC6)c6ccsc65)cc4)cc3)c2s1 [Ff-4] | > 10000 | > 10000
14 | 380 ± 10 | 670 ± 20 | 210 ± 30 | 2640 ± 60 | > 10000 | 250 ± 20 | – | – | 1810 ± 170 | 80.28 | 85.87 | – | [Br-].[Br-].c1cc2c(s1)c(N1CCCC1)nc[n+]2Cc1ccc(CCc2ccc(C[n+]3cnc(N4CCCC4)c4sccc43)cc2)cc1 [Fg-16] | 7270 ± 800 | > 10000
